≈ marks a conversion by molar mass, not a printed value.
Legend:
HPAF-II = test: Cytotoxicity MTT assay, HPAF-II; assay type: cell-based; details: Homo sapiens, HPAF-II; read-out: Cytotoxicity IC50 HPAF-II
Procedure: (§1) Selected molecules were tested for cytotoxicity (IC50) in cancer and healthy cells via a MTT colorimetric assay.
(§2) Each cell was cultured in recommended medium by ATCC, and the IC50 data were obtained with each cell line.

C. difficile spores = test: Spore viability testing; assay type: cell-based; details: x2 MIC, 24 hours
KB = test: Cytotoxicity MTT assay, KB; assay type: cell-based; details: Homo sapiens, KB; read-out: Cytotoxicity IC50 KB
Procedure: as §1, §2

Panc-1 cells = test: Boyden Chamber migration assay, Panc-1; assay type: cell-based; details: FIG. 7, versus Gemcitabine, Taxol, Tunicamycin
DPAGT1 = DPAGT1 (Homo sapiens (Human), UniProt Q9H3H5); test: DPAGT1 inhibition (FIG. 6); assay type: biochemical
Chain of DPAGT1 (Q9H3H5 whole entry, looked up): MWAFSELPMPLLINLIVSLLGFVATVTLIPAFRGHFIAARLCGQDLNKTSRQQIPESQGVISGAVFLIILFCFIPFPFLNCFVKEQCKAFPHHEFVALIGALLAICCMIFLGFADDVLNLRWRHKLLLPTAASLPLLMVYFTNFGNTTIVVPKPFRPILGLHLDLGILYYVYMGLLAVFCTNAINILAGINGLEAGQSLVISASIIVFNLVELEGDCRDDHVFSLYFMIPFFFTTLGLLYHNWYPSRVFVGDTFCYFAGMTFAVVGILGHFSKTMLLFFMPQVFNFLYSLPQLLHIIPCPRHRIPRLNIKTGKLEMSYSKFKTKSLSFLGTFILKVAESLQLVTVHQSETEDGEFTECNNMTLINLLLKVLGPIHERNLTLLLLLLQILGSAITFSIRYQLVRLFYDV

Panc-1 = test: Cytotoxicity MTT assay, Panc-1; assay type: cell-based; details: Homo sapiens, PANC-1; read-out: Cytotoxicity IC50 Panc-1
Procedure: as §1, §2

AsPc-1 cells [1] = test: Cell viability assay (FIG. 5), AsPc-1; assay type: cell-based; details: after 4 days; 1.77 μM, 3.54 μM, and 14.17 μM
Procedure: The cytotoxic activity of 11 against AsPc-1 and Panc-1 cells was also measured through cell viability assays (FIG. 5). […] Similarly, the percentage of viable Panc-1 cells was near-zero after about 3 days in the presence of 11 (0.44 μM, 1.77 μM, and 7.08 μM).

B. subtilis = test: Antibacterial activity (FIG. 4), B. subtilis; assay type: cell-based
AsPc-1 cells [2] = test: Synergistic assay (checkerboard), 11 and Gemcitabine; assay type: cell-based
Procedure: (§3) The FIC index was calculated according to the following equation. ΣFIC=FICA+FICB=CA/MICA+CB/MICB where MICA and MICB are MIC of drugs A and B, CA and CB are the concentrations of drugs A and B used in combination. In these interaction studies, ΣFIC of less than 0.5 represents synergistic activity.
These experiments were performed in the same manner as those of Example 7.

SK-OV-3 = test: Cytotoxicity MTT assay, SK-OV-3; assay type: cell-based; details: Homo sapiens, SK-OV-3; read-out: Cytotoxicity IC50 SK-OV-3
Procedure: as §1, §2

AsPc-1 cells [3] = test: Synergistic assay (checkerboard), 11 and Paclitaxel; assay type: cell-based
Procedure: as §3

C. difficile ATCC43596 = test: Minimum inhibitory concentration assay
Caco-2 = test: Cytotoxicity MTT assay, Caco-2; assay type: cell-based; details: Homo sapiens, Caco-2; read-out: Cytotoxicity IC50 Caco-2
Procedure: as §1, §2

MDA-MB-435S = test: Cytotoxicity MTT assay, MDA-MB-435S; assay type: cell-based; details: Homo sapiens, MDA-MB-435S; read-out: Cytotoxicity IC50 MDA-MB-435S
Procedure: as §1, §2

C. perfringens = assay type: cell-based; details: FIG. 4
Hemolysis, sheep blood = assay type: cell-based; details: sheep, sheep blood
sheep blood = test: Hemolysis, sheep blood; assay type: cell-based
LoVo = test: Cytotoxicity MTT assay, LoVo; assay type: cell-based; details: Homo sapiens, LoVo; read-out: Cytotoxicity IC50 LoVo
Procedure: as §1, §2

[4] = Cytotoxicity MTT assay, Vero cells; assay type: cell-based, monkey; details: monkey
Procedure: (§4) Cytotoxicity Assays. Cytotoxicity assays were performed using Vero monkey kidney (ATCC CCL-81) and HepG2 human hepatoblastoma cell (ATCC HB-8065) lines. Vero or HepG2 cells were cultured in 75 cm^2 flasks and transferred to 96-well cell culture plates using ATCC-formulated Eagle's minimum essential medium containing 10% FBS, penicillin, and streptomycin. Serially diluted aliquots of each test compound at concentrations ranging from 0.78-200 μg/mL were added to the cells. […] The plates were incubated and cytotoxic effects were determined via the MTT assay.
as §1
(§5) Cytotoxicity Assays. For Vero cells: Vero cell was cultured in Complete eagle's minimum essential growth medium (EMEM) containing L-glutamine, sodium pyruvate, minimum essential amino acids, penicillin-streptomycin and 10% fetal bovine serum. Inoculating number of cells were 400,000 cells/mL and a final 40,000 cells/well. After 72 h of exposure of molecules to this cell line at concentrations ranging from 0.78 to 200 μg/mL, the culture medium was changed to complete EMEM without phenol red before addition of yellow tetrazolium dye; MTT. Viability was assessed on the basis of cellular conversion of MTT into a purple formazan product. The absorbance of the colored formazan product was measured at 570 nm by BioTek Synergy HT Spectrophotometer. Linearity of the MTT response to the cell number was determined.

Vero cells = test: Cytotoxicity MTT assay, Vero cells; assay type: cell-based, monkey; details: Primates, Vero; Table 2; read-out: Vero cells IC50
Procedure: as §4, §1, §5

L12210 = test: Cytotoxicity MTT assay, L12210; assay type: cell-based; details: read-out: Cytotoxicity IC50 L12210
Procedure: as §1, §2

[5] = Homo sapiens, ASPC1, 11 alone, AsPc-1 cells, read-out: IC50 A

NC[C@H]1O[C@@H](O[C@H]([C@H]2O[C@@H](n3ccc(=O)[nH]c3=O)[C@H](O)[C@@H]2O)[C@H](NCCCC(=O)NCc2ccc(N3CCC(Oc4ccc(C(F)(F)F)cc4)CC3)cc2)C(N)=O)[C@H](O)[C@@H]1O [Compound 11]
IC50 (HPAF-II): < 0.098 µM | Effect on viability of C. difficile spores (CFU) (C. difficile spores): caused loss of viability of C. difficile spores | IC50 (KB): 7.09 µM | Panc-1 migratory cells (Panc-1 cells): fewer Panc-1 migratory cells than Gemcitabine, Taxol, and Tunicamycin | IC50 (DPAGT1): 0.26 µM | IC50 (Panc-1): < 0.098 µM | AsPc-1 cell viability (AsPc-1 cells [1]): Nearly all AsPc-1 cells were killed | Antibacterial activity against B. subtilis (B. subtilis): displayed antibacterial activity | AsPc-1 cells dead/alive (AsPc-1 cells [2]; Compound 11 0.0488281 μM + Gemcitabine 0.024414 μM): alive | AsPc-1 cells dead/alive (AsPc-1 cells [2]; Compound 11 0.0488281 μM + Gemcitabine 0.048828 μM): alive | AsPc-1 cells dead/alive (AsPc-1 cells [2]; Compound 11 0.0488281 μM + Gemcitabine 0.097656 μM): dead | AsPc-1 cells dead/alive (AsPc-1 cells [2]; Compound 11 0.0488281 μM + Gemcitabine 0.195313 μM): dead | AsPc-1 cells dead/alive (AsPc-1 cells [2]; Compound 11 0.0488281 μM + Gemcitabine 0.390625 μM): dead | AsPc-1 cells dead/alive (AsPc-1 cells [2]; Compound 11 0.0976563 μM + Gemcitabine 0.024414 μM): alive | AsPc-1 cells dead/alive (AsPc-1 cells [2]; Compound 11 0.0976563 μM + Gemcitabine 0.048828 μM): alive | AsPc-1 cells dead/alive (AsPc-1 cells [2]; Compound 11 0.0976563 μM + Gemcitabine 0.097656 μM): dead | AsPc-1 cells dead/alive (AsPc-1 cells [2]; Compound 11 0.0976563 μM + Gemcitabine 0.195313 μM): dead | AsPc-1 cells dead/alive (AsPc-1 cells [2]; Compound 11 0.0976563 μM + Gemcitabine 0.390625 μM): dead | AsPc-1 cells dead/alive (AsPc-1 cells [2]; Compound 11 0.1953125 μM + Gemcitabine 0.024414 μM): alive | AsPc-1 cells dead/alive (AsPc-1 cells [2]; Compound 11 0.1953125 μM + Gemcitabine 0.048828 μM): alive | AsPc-1 cells dead/alive (AsPc-1 cells [2]; Compound 11 0.1953125 μM + Gemcitabine 0.097656 μM): dead | AsPc-1 cells dead/alive (AsPc-1 cells [2]; Compound 11 0.1953125 μM + Gemcitabine 0.195313 μM): dead | AsPc-1 cells dead/alive (AsPc-1 cells [2]; Compound 11 0.1953125 μM + Gemcitabine 0.390625 μM): dead | AsPc-1 cells dead/alive (AsPc-1 cells [2]; Compound 11 0.390625 μM + Gemcitabine 0.024414 μM): alive | AsPc-1 cells dead/alive (AsPc-1 cells [2]; Compound 11 0.390625 μM + Gemcitabine 0.048828 μM): alive | AsPc-1 cells dead/alive (AsPc-1 cells [2]; Compound 11 0.390625 μM + Gemcitabine 0.097656 μM): dead | AsPc-1 cells dead/alive (AsPc-1 cells [2]; Compound 11 0.390625 μM + Gemcitabine 0.195313 μM): dead | AsPc-1 cells dead/alive (AsPc-1 cells [2]; Compound 11 0.390625 μM + Gemcitabine 0.390625 μM): dead | AsPc-1 cells dead/alive (AsPc-1 cells [2]; Compound 11 0.78125 μM + Gemcitabine 0.024414 μM): alive | AsPc-1 cells dead/alive (AsPc-1 cells [2]; Compound 11 0.78125 μM + Gemcitabine 0.048828 μM): alive | AsPc-1 cells dead/alive (AsPc-1 cells [2]; Compound 11 0.78125 μM + Gemcitabine 0.097656 μM): dead | AsPc-1 cells dead/alive (AsPc-1 cells [2]; Compound 11 0.78125 μM + Gemcitabine 0.195313 μM): dead | AsPc-1 cells dead/alive (AsPc-1 cells [2]; Compound 11 0.78125 μM + Gemcitabine 0.390625 μM): dead | Σ FIC (AsPc-1 cells [2]; Entry 1: A 11 CA […] + B Gemcitabine CB 0.37 μM): 0.3 | Σ FIC (AsPc-1 cells [2]; Entry 2: A 11 CA 0.22 μM + B Gemcitabine CB 0.37 μM): 0.47 | IC50 (AsPc-1 cells [2]; [5]): 0.98 µM | Concentration in combination resulting in AsPc-1 cell death (AsPc-1 cells [2]; as low as, 11 together with Gemcitabine): 0.0488 µM | Effect of combination of 11 and Gemcitabine (AsPc-1 cells [2]; both combinations tested): synergistic effect | IC50 (SK-OV-3): 2.85 µM | Σ FIC (AsPc-1 cells [3]; Entry 1: A 11 CA 14.2 nM + B Paclitaxel CB 0.4 nM): 0.224 | Σ FIC (AsPc-1 cells [3]; Entry 2: A 11 CA 14 nM + B Paclitaxel CB 0.88 nM): 0.16 | Σ FIC (AsPc-1 cells [3]; Entry 3: A 11 CA 14 nM + B Paclitaxel CB 7 nM): 0.27 | Σ FIC (AsPc-1 cells [3]; Entry 4: A 11 CA 220 nM + B Paclitaxel CB 40 nM): 0.224 | Σ FIC (AsPc-1 cells [3]; Entry 5: A 11 CA 110 nM + B Paclitaxel CB 88 nM): 0.114 | IC50 (AsPc-1 cells [3]; [5]): 0.982 µM | Effect of combination of 11 and Taxol (AsPc-1 cells [3]; all five combinations): synergistic effect | Anti-C. difficile activity (C. difficile ATCC43596): display anti-C. difficile activity | MIC (C. difficile ATCC43596; Clostridioides difficile, ATCC43596, 48 h, read-out: C. difficile ATCC43596 MIC): 3.25 µg/mL (≈ 3.75 µM) | Antibacterial activity against C. difficile (C. difficile ATCC43596; FIG. 4): displayed antibacterial activity | IC50 (Caco-2): > 60 µM | IC50 (MDA-MB-435S): 7.09 µM | Antibacterial activity against C. perfringens (C. perfringens): displayed antibacterial activity | IC50 (Hemolysis, sheep blood): 206 µM | IC50 (sheep blood): 206 µM | IC50 (LoVo): 0.22 µM | IC50 at 72 h [4]: > 65 µM | IC50 (Vero cells): 56.8 µM | IC50 (L12210): > 100 µM
